Data taken from ChEMBL document CHEMBL4334425, “Eradicating uropathogenic Escherichia coli biofilms with a ciprofloxacin-dinitroxide conjugate” (Medchemcomm, 2019).
Values belong to the compound of their own block, whether it stands above or below them. Active and inactive are the calls of the source. The rule behind the calls is not given here.

Legend:
[1] = system: Escherichia coli; experiment: Antibacterial activity against Escherichia coli UTI89 incubated for 18 hrs by broth microdilution method; type: functional
[2] = system: Escherichia coli; experiment: Antibiofilm activity against Escherichia coli UTI89 incubated for 24 hrs; type: functional
[3] = system: Escherichia coli; experiment: Ratio of MBEC for ciprofloxacin to compound for antibiofilm activity against Escherichia coli UTI89; type: functional
[4] = system: Escherichia coli; experiment: Antibiofilm activity against Escherichia coli UTI89 assessed as reduction in biofilm residing cells at 12.5 uM incubated for 24 hrs relative to control; type: functional; parameters: scale not given: the % may be the effect or the level left
[5] = system: Escherichia coli; experiment: Antibiofilm activity against Escherichia coli UTI89 assessed as reduction in viable bioflim associated cells at 12.5 uM incubated for 24 hrs relative to control; type: functional
[6] = system: Escherichia coli; experiment: Antibiofilm activity against Escherichia coli UTI89 assessed as small bacterial cells at 400 uM incubated for 24 hrs by SYTO9 and PI staining based fluorescence microscopic method; type: functional, organism-based
[7] = system: Escherichia coli; experiment: Antibiofilm activity against Escherichia coli UTI89 assessed as dead cells at 400 uM incubated for 24 hrs by SYTO9 and PI staining based fluorescence microscopic method; type: functional, organism-based
[8] = system: Escherichia coli; experiment: Antibiofilm activity against Escherichia coli UTI89 at 12.5 uM incubated for 24 hrs by SYTO9 and PI staining based fluorescence microscopic method; type: functional
[9] = system: Escherichia coli; experiment: Antibiofilm activity against Escherichia coli UTI89 at 400 uM incubated for 24 hrs by SYTO9 and PI staining based fluorescence microscopic method; type: functional
[10] = system: Escherichia coli; experiment: Antibiofilm activity against Escherichia coli UTI89 assessed as cell filamentation at 12.5 to 25 uM incubated for 24 hrs by SYTO9 and PI staining based fluorescence microscopic method; type: functional, organism-based
[11] = system: Escherichia coli; experiment: Potentiation of ciprofloxacin-induced antibiofilm activity against Escherichia coli UTI89 assessed as increase in ciprofloxacin-induced log reduction in CFU at 20 uM incubated for 24 hrs; type: functional
[12] = system: Escherichia coli; experiment: Potentiation of ciprofloxacin-induced antibiofilm activity against Escherichia coli UTI89 assessed as increase in ciprofloxacin-induced log reduction in CFU at 40 uM incubated for 24 hrs; type: functional
[13] = system: Escherichia coli; experiment: Potentiation of ciprofloxacin-induced antibiofilm activity against Escherichia coli UTI89 assessed as increase in ciprofloxacin-induced log reduction in CFU at 80 uM incubated for 24 hrs; type: functional
[14] = system: Escherichia coli; experiment: Potentiation of ciprofloxacin-induced antibiofilm activity against Escherichia coli UTI89 assessed as increase in ciprofloxacin-induced reduction in CFU at 20 uM incubated for 24 hrs relative to control; type: functional; parameters: scale not given: the % may be the effect or the level left
[15] = system: Escherichia coli; experiment: Potentiation of ciprofloxacin-induced antibiofilm activity against Escherichia coli UTI89 assessed as increase in ciprofloxacin-induced reduction in CFU at 40 uM incubated for 24 hrs relative to control; type: functional; parameters: scale not given: the % may be the effect or the level left
[16] = system: Escherichia coli; experiment: Potentiation of ciprofloxacin-induced antibiofilm activity against Escherichia coli UTI89 assessed as increase in ciprofloxacin-induced reduction in CFU at 80 uM incubated for 24 hrs relative to control; type: functional; parameters: scale not given: the % may be the effect or the level left
[17] = system: T-24; experiment: Cytotoxicity against human T24 cells assessed as reduction in cell viability incubated for 24 hrs by LDH assay; type: cell-based
[18] = system: Escherichia coli; experiment: Antibacterial activity against Escherichia coli UTI89 incubated for 18 hrs in presence of 1:2 ratio of ciprofloxacin to compound by broth microdilution method; type: functional
[19] = system: Escherichia coli; experiment: Antibiofilm activity against Escherichia coli UTI89 incubated for 24 hrs in presence of 1:2 ratio of ciprofloxacin to compound; type: functional
[20] = Escherichia coli, UTI89, 18 h, read-out: MIC

SMILES: CC1(C)CC(C(=O)NCCCC[C@H](N)C(=O)N2CCN(c3cc4c(cc3F)c(=O)c(C(=O)O)cn4C3CC3)CC2)CC(C)(C)N1[O]
MIC [1]: < 1.95 µM | MBEC [2]: > 1000 µM

SMILES: CC1(C)CC(C(=O)NCCCC[C@H](NC(=O)[C@@H](N)CCCCNC(=O)C2CC(C)(C)N([O])C(C)(C)C2)C(=O)N2CCN(c3cc4c(cc3F)c(=O)c(C(=O)O)cn4C3CC3)CC2)CC(C)(C)N1[O]
MIC [1]: <=10.5 uM | MBEC [2]: <=400 uM | Ratio [3]: 2 | Activity [4]: 99.7% | fold change (FC) [5]: 3 | Activity [6]: Active | Activity [7]: Active | Activity [8]: >99% | Activity [9]: 99.9% | Activity [10]: Active | Activity [11]: 1.35 log10CFU | Activity [12]: 1.82 log10CFU | Activity [13]: 2.69 log10CFU | Activity [14]: 98% | Activity [15]: 93% | Activity [16]: 50% | IC50 [17]: > 500 µM

SMILES: CC1(C)CC(C(=O)O)CC(C)(C)N1[O]
MIC [1]: >1000 µM | MIC [18]: <=0.045 uM | MBEC [2]: >1000 µM | MBEC [19]: <=800 uM

The next lines start with results.

MIC [1, 20]: ≤ 0.045 µM
SMILES: O=C(O)c1cn(C2CC2)c2cc(N3CCNCC3)c(F)cc2c1=O [CIPROFLOXACIN]
MBEC [2]: <=800 uM

MIC [1, 20]: ≤ 30.6 µM
SMILES: CON1C(C)(C)CC(C(=O)NCCCC[C@H](N)C(=O)N2CCN(c3cc4c(cc3F)c(=O)c(C(=O)O)cn4C3CC3)CC2)CC1(C)C
MBEC [2]: >1000 µM

MIC [1, 20]: ≤ 81.6 µM
SMILES: CON1C(C)(C)CC(C(=O)NCCCC[C@H](NC(=O)[C@@H](N)CCCCNC(=O)C2CC(C)(C)N(OC)C(C)(C)C2)C(=O)N2CCN(c3cc4c(cc3F)c(=O)c(C(=O)O)cn4C3CC3)CC2)CC1(C)C
MBEC [2]: >650 µM
